Data on two compounds can be found in PMC10005547, “Development of Highly Efficient Estrogen Receptor β-Targeted Near-Infrared Fluorescence Probes Triggered by Endogenous Hydrogen Peroxide for Diagnostic Imaging of Prostate Cancer” (Molecules, 2023).

Where only a bound is given, the exact number is not on record here.

Data set [1] has as its target T1, ERβ (Homo sapiens, UniProt Q92731).
T1 construct: gene ESR2
As to the kind of experiment: fluorescence polarization competition against a fluorescent ligand. The format is binding. In general terms: Polarisation of emitted light reports the rotation of a fluorescent probe.

In data set [2] the target is T2, ERα (Homo sapiens, UniProt P03372).
T2 construct: gene ESR1
T2 sequence (P03372 1-595): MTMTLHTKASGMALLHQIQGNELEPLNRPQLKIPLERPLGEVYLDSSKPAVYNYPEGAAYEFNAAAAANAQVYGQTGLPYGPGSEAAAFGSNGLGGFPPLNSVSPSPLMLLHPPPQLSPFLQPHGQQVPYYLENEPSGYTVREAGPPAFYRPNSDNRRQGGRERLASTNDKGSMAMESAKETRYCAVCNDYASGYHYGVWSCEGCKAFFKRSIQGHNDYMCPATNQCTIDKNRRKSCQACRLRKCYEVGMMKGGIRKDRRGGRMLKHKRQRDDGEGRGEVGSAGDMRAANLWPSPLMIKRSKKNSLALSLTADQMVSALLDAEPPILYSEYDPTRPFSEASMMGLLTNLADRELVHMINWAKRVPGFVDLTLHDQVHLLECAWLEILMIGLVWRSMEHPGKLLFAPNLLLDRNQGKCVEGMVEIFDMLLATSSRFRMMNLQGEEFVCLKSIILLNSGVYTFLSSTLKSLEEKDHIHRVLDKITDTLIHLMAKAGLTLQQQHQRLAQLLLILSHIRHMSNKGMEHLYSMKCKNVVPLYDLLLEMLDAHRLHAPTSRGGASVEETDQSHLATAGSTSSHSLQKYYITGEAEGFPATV
Described as above. The format is binding.

The nature of data set [3]: in vitro. Also noted: CCK-8 cell viability assay, absorbance at 450 nm. The settings on record: human, mcf-10a cells; read-out: MCF-10A (IC50). The procedure:
Normal breast cells MCF-10A and prostate cancer cells DU-145 (purchased from ATCC, Rockville, MD, USA), breast cancer cells MCF-7 (purchased from the Type Culture Collection of the Chinese Academy of Sciences, Shanghai, China) were cultured in a phenol red DMEM [compound left out] medium supplemented with 10% fetal bovine serum. When the cell density reached 80% to 90%, the cells were digested, and the cell suspension was spread into 96-well cell culture plates with a phenol red-free DMEM medium containing 10% CS. After the cells were completely adherent, the original culture medium was discarded, and 100 μL of fresh compound solution prepared with the DMEM medium containing 10% CS were added to each well. The concentration gradient of the compound is: 1 × 10^−7.5 M, 1 × 10^−7 M, 1 × 10^−6.5 M, 1 × 10^−6 M, 1 × 10^−5.5 M, 1 × 10^−5 M, 1 × 10^−4.5 M, 1 × 10^−4 M. After 4 days of drug-treated culture, the culture plate was removed, the culture medium was aspirated, 100 μL CCK-8 working solution was added to each well and incubated for 1.5–2 h at 37 °C in a 5% CO2 incubator. The plate was read on the microplate reader, the wavelength at 450 nm was selected as the reference wavelength, the experimental results were analyzed, and the IC50 was calculated. […]

Data set [4] relates to MCF-7. Nature of the data set: cells. Also noted: CCK-8 cell viability assay, absorbance at 450 nm. The note with it: Homo sapiens, MCF7, 96 h. The method, then: (§1) Normal breast cells MCF-10A and prostate cancer cells DU-145 (purchased from ATCC, Rockville, MD, USA), breast cancer cells MCF-7 (purchased from the Type Culture Collection of the Chinese Academy of Sciences, Shanghai, China) were cultured in a phenol red DMEM [compound left out] medium supplemented with 10% fetal bovine serum. When the cell density reached 80% to 90%, the cells were digested, and the cell suspension was spread into 96-well cell culture plates with a phenol red-free DMEM medium containing 10% CS. After the cells were completely adherent, the original culture medium was discarded, and 100 μL of fresh compound solution prepared with the DMEM medium containing 10% CS were added to each well. The concentration gradient of the compound is: 1 × 10^−7.5 M, 1 × 10^−7 M, 1 × 10^−6.5 M, 1 × 10^−6 M, 1 × 10^−5.5 M, 1 × 10^−5 M, 1 × 10^−4.5 M, 1 × 10^−4 M. After 4 days of drug-treated culture, the culture plate was removed, the culture medium was aspirated, 100 μL CCK-8 working solution was added to each well and incubated for 1.5–2 h at 37 °C in a 5% CO2 incubator. The plate was read on the microplate reader, the wavelength at 450 nm was selected as the reference wavelength, the experimental results were analyzed, and the IC50 was calculated. To investigate the toxicity of P1 and P2 on normal cells and their inhibitory activity on cancer cells before performing cellular imaging, we tested the effects of P1 and P2 on MCF-10A normal breast cells, MCF-7 breast cancer cells with high ERα expression, and DU-145 prostate cancer cells with high ERβ expression by using CCK-8 assays (Table S1). […] However, P1 was not toxic to any of these three cell lines.

Data set [5] has as its system DU-145. As to the kind of experiment: cells. Also noted: CCK-8 cell viability assay, absorbance at 450 nm. The note with it: Homo sapiens, DU-145, 96 h. The method, then:
as §1

T1 sequence (Q92731 whole entry): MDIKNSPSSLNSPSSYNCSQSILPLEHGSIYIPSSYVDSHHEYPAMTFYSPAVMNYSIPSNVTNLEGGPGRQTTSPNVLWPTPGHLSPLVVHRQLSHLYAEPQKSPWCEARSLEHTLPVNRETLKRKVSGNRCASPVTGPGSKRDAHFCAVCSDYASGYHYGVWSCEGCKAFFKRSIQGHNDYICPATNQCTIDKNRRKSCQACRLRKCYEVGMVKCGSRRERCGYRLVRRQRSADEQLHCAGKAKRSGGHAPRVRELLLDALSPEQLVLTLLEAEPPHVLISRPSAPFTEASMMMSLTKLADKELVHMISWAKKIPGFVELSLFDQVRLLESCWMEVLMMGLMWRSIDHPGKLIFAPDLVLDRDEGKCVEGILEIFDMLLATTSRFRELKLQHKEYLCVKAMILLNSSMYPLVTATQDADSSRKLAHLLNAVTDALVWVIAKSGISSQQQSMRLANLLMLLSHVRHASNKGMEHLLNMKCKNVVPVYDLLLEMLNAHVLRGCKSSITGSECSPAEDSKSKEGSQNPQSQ

The Ki is a measure of affinity in units of concentration, obtained from inhibition or displacement. Broadly, the IC50 is the concentration that gives 50% inhibition. A high value points to weaker potency. Regarding `CC1(C)OB(c2ccc(/C=C/C3=CC(=C(C#N)C#N)c4cc(O)ccc4O3)cc2)OC1(C)C` [P1, (E)-2-(6-Hydroxy-2-(4-(4,4,5,5-tetramethyl-1,3,2-dioxaborolan-2-yl)styryl)-4H-chromen-4-ylidene)malononitrile], the figures for the Ki in data set [1] and in data set [2] were 1.42 ± 0.02 µM and 4.36 ± 0.01 µM, respectively. Besides, in data set [3], the CC50 at 96 h is greater than 100 µM. Besides, the IC50 in data set [4] and in data set [5] was greater than 100 µM each time.
For the compound `C=CS(=O)(=O)Oc1ccc2c(c1)C(=C(C#N)C#N)C=C(/C=C/c1ccc(B3OC(C)(C)C(C)(C)O3)cc1)O2` [P2, (E)-4-(Dicyanomethylene)-2-(4-(4,4,5,5-tetramethyl-1,3,2-dioxaborolan-2-yl)styryl)-4H-chromen-6-yl ethenesulfonate], the values for the Ki in data set [1] and in data set [2] were 1.21 ± 0.03 µM and 8.73 ± 0.01 µM, respectively. Moreover, the CC50 at 96 h in data set [3] is greater than 100 µM. The IC50 in data set [4] is 16.3 ± 4.42 µM; in data set [5], greater than 100 µM.
